In the experiment the target is TrkA kinase (Homo sapiens (Human), UniProt P04629). Description: HTRF assay for inhibitory activity (IC50) against NTRK kinase, TrkA. To be noted: Table 1, ATP 40 μM, kinase 0.5 nM. It counts as biochemical. How it is done: 1. Assay for Inhibitory Activity (IC50) Against NTRK Kinase
Chain of TrkA kinase (P04629 33-796): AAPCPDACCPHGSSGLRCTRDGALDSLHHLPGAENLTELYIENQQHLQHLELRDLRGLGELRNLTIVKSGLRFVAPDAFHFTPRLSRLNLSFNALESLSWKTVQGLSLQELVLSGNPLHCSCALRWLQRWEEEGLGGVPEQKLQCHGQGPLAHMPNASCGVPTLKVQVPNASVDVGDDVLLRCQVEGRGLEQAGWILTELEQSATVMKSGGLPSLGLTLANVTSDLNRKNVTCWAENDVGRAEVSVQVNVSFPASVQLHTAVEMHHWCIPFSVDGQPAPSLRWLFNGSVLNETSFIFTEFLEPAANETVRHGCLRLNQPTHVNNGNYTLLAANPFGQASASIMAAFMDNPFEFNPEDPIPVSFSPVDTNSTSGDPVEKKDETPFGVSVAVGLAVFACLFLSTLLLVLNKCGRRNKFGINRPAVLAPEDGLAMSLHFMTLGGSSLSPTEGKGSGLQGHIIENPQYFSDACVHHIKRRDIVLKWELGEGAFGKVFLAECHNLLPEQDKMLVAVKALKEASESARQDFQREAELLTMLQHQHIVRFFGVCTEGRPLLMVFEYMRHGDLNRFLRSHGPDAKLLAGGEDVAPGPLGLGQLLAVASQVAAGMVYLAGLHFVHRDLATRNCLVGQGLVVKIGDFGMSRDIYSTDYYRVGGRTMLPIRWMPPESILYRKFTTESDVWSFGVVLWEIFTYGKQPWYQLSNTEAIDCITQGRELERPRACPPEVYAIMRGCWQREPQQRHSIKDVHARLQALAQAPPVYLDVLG
A testing platform for TrkA, TrkB and TrkC kinase activity was established based on Homogeneous Time-Resolved Fluorescence (HTRF) assay, and the activities of the compounds were tested using the platform. The compounds were subjected to three-fold gradient dilution with 100% DMSO with a starting concentration of 1 mM (11 concentrations in total). 4 μL of diluted sample for each concentration was added to 96 μL of reaction buffer (50 mM HEPES, pH7.4, 5 mM MgCl2, 1 mM NaVO3, 0.001% Tween-20, 0.01% BSA and 1 mM DTT) and mixed homogeneously to be used as a 4* compound. The reaction buffer was used to formulate 2* TrkA, TrkB and TrkC kinases (purchased from Carna Biosciences 08-186, 08-187, 08-197, and the final concentrations thereof were 0.5 nM, 0.1 nM, and 1 nM, respectively) and 4* substrate mixture (ATP+TK peptide) (wherein the final concentrations of ATP were 40 μM, 50 μM, and 20 μM, respectively; TK peptide, HTRF® KinEASE™-TK, was purchased from Cisbio, and the final concentration thereof was 100 nM) for use. 2.5 μL of the 4* compound was added to a 384-well plate (OptiPlate-384, purchased from PerkinElmer), and then 5 μL of the 2* TrkA, TrkB and TrkC kinases were added, and mixed homogeneously by centrifugation. Then 2.5 μL of the 4* substrate mixture was added to initiate the reaction (the total reaction volume is 10 μL). The 384-well plate was placed in an incubator and incubated for 60 min at 23° C. Then the reaction was terminated by adding 5 μL of Eu3+ cryptate-labeled anti-phosphotyrosine antibody (HTRF® KinEASE™-TK, purchased from Cisbio), and 5 μL of Streptavidin-XL-665 (HTRF® KinEASE™-TK, purchased from Cisbio). After incubated for 1 hr in the incubator, the fluorescence values were read on Envision (purchased from PerkinElmer). The excitation wavelength was 320 nm, and the emission wavelengths for detection were 665 nm and 620 nm. The enzymatic activity was represented by a ratio of the two readout at the two emission wavelengths. The enzymatic activity for each compound was tested at 11 concentrations, and IC50 values of the compounds were obtained by calculating the data using GraFit6.0 software (Erithacus Software).
A general note: TR-FRET usually uses a lanthanide donor and a delayed reading to cut background.
What is called IC50 is the concentration needed to halve the response being measured. `NC(=S)c1c(N)nn2ccc(N3CCCC3c3cc(F)ccc3F)nc12` (stereo not drawn) [Example 31, 2-amino-5-(2-(2,5-difluorophenyl)pyrrolidin-1-yl)pyrazolo[1,5-a]pyrimidine-3-thioamide] gave an IC50 of less than 1 nM.

Turning to `NC(=O)c1c(N)nn2ccc(N3C[C@@H](O)CC3c3cc(F)ccc3F)nc12` (stereo in doubt) [Example 47, 2-amino-5-((2R,4S)-2-(2,5-difluorophenyl)-4-hydroxypyrrolidin-1-yl)pyrazolo[1,5-a]pyrimidine-3-carboxamide], the IC50 was less than 1000 nM.

`CNC(=O)c1c(N)nn2ccc(N3CCC[C@@H]3c3cc(F)ccc3F)nc12` [Example 3, (R)-2-amino-5-(2-(2,5-difluorophenyl)pyrrolidin-1-yl)-N-methylpyrazolo[1,5-a]pyrimidine-3-carboxamide] came in with a concentration for half-maximal inhibition (IC50) of less than 1 nM.

On to `Nc1nn2ccc(N3C[C@@H](F)C[C@@H]3c3cc(F)ccc3F)nc2c1C(=O)NOCCO` [Example 50, 2-amino-5-((2R,4S)-2-(2,5-difluorophenyl)-4-fluoropyrrolidin-1-yl)-N-(2-hydroxyethoxy)pyrazolo[1,5-a]pyrimidine-3-carboxamide], for which the IC50 was less than 1 nM.

`CCOC(=O)c1c(NC(C)=O)nn2ccc(N3CCC[C@@H]3c3cc(F)ccc3F)nc12` [Example 9, ethyl (R)-2-acetylamino-5-(2-(2,5-difluorophenyl)pyrrolidin-1-yl)pyrazolo[1,5-a]pyrimidine-3-carboxylate]: the IC50 is less than 25 nM.

Consider `CCOC(=O)c1csc(-c2c(N)nn3ccc(N4CCCC4c4cc(F)ccc4F)nc23)n1` (stereo not drawn) [Example 29, ethyl 2-(2-amino-5-(2-(2,5-difluorophenyl)pyrrolidin-1-yl)pyrazolo[1,5-a]pyrimidin-3-yl)thiazole-4-carboxylate], for which the IC50 is less than 1 nM.

Consider `Nc1nn2ccc(N3C[C@@H](F)C[C@@H]3c3cc(F)ccc3F)nc2c1C(=O)NCCO` [Example 49, 2-amino-5-((2R,4S)-2-(2,5-difluorophenyl)-4-fluoropyrrolidin-1-yl)-N-(2-hydroxyethyl)pyrazolo[1,5-a]pyrimidine-3-carboxamide], for which the IC50 was less than 1 nM.

`Nc1nn2ccc(N3C[C@@H](F)C[C@@H]3c3cc(F)ccc3F)nc2c1C(=O)NC1CC1` [Example 51, 2-amino-N-cyclopropyl-5-((2R,4S)-2-(2,5-difluorophenyl)-4-fluoropyrrolidin-1-yl)pyrazolo[1,5-a]pyrimidine-3-carboxamide] displayed an IC50 of less than 1 nM.

In turn, `CCOC(=O)c1c(N)nn2ccc(N3CCC[C@@H]3c3cc(F)ccc3F)nc12` [Example 1, ethyl (R)-2-amino-5-(2-(2,5-difluorophenyl)pyrrolidin-1-yl)pyrazolo[1,5-a]pyrimidine-3-carboxylate] gave an IC50 of less than 1 nM.

`Cn1cc(-c2c(N)nn3ccc(N4CCC[C@@H]4c4cc(F)ccc4F)nc23)cn1` [Example 34] returned a concentration for half-maximal inhibition (IC50) of less than 1 nM.

In the case of `CN(C)CCNC(=O)c1c(N)nn2ccc(N3CCC[C@@H]3c3cc(F)ccc3F)nc12` [Example 19, (R)-2-amino-5-(2-(2,5-difluorophenyl)pyrrolidin-1-yl)-N-(2-(dimethylamino)ethyl)pyrazolo[1,5-a]pyrimidine-3-carboxamide], the half-inhibitory concentration (IC50) is less than 1 nM.

Molecule `Nc1nn2ccc(N3CCCC3c3cc(F)ccc3F)nc2c1-c1nc(C(=O)N2CC[C@H](O)C2)cs1` (stereo partly drawn) [Example 30, (2-(2-amino-5-(2-(2,5-difluorophenyl)pyrrolidin-1-yl)pyrazolo[1,5-a]pyrimidin-3-yl)thiazol-4-yl)((S)-3-hydroxypyrrolidin-1-yl)methanone] gave a concentration for half-maximal inhibition (IC50) of less than 1 nM.

On to `Cc1csc(-c2c(N)nn3ccc(N4CCCC4c4cc(F)ccc4F)nc23)n1` (stereo not drawn) [Example 28], for which the IC50 is less than 25 nM.

In turn, `CCOC(=O)c1c(N)nn2ccc(N3C[C@@H](F)C[C@H]3c3cc(F)ccc3F)nc12` [Example 37, ethyl 2-amino-5-((2S,4S)-2-(2,5-difluorophenyl)-4-fluoropyrrolidin-1-yl)pyrazolo[1,5-a]pyrimidine-3-carboxylate] gave a concentration for half-maximal inhibition (IC50) of less than 500 nM.

In turn, `Nc1nn2ccc(N3CCC[C@@H]3c3cc(F)ccc3F)nc2c1C(=O)N1CCC(O)C1` (stereo partly drawn) [Example 10, (2-amino-5-((R)-2-(2,5-difluorophenyl)pyrrolidin-1-yl)pyrazolo[1,5-a]pyrimidin-3-yl) (3-hydroxypyrrolidin-1-yl)methanone] came in with an IC50 of less than 25 nM.

Turning to `CCOC(=O)c1c(NC(=O)NC)nn2ccc(N3CCCC3c3cc(F)ccc3F)nc12` (stereo not drawn) [Example 7, ethyl 5-(2-(2,5-difluorophenyl)pyrrolidin-1-yl)-2-(3-methylureido)pyrazolo[1,5-a]pyrimidine-3-carboxylate], the half-maximal inhibitory concentration (IC50) is less than 100 nM.

With `NC(=O)c1c(N)nn2ccc(N3CCCC3c3cc(F)ccc3F)nc12` (stereo not drawn) [Example 6, 2-amino-5-(2-(2,5-difluorophenyl)pyrrolidin-1-yl)pyrazolo[1,5-a]pyrimidine-3-carboxamide], the IC50 was less than 1 nM.

Turning to `Nc1cc2nc(N3CCCC3c3cc(F)ccc3F)ccn2n1` (stereo not drawn) [Example 24, 5-(2-(2,5-difluorophenyl)pyrrolidin-1-yl)pyrazolo[1,5-a]pyrimidin-2-amine], the IC50 was less than 500 nM.

The molecule `N#Cc1c(N)nn2ccc(N3C[C@@H](O)C[C@@H]3c3cc(F)ccc3F)nc12` [Example 44, 2-amino-5-((2R,4S)-2-(2,5-difluorophenyl)-4-hydroxypyrrolidin-1-yl)pyrazolo[1,5-a]pyrimidine-3-carbonitrile] gave an IC50 of less than 25 nM.

As to `CNc1nn2ccc(N3CCC[C@@H]3c3cc(F)ccc3F)nc2c1C(N)=O` [Example 21, (R)-5-(2-(2,5-difluorophenyl)pyrrolidin-1-yl)-2-(methylamino)pyrazolo[1,5-a]pyrimidine-3-carboxamide], the IC50 was less than 500 nM.

In the case of `CCOC(=O)c1coc(-c2c(NCc3ccc(OC)cc3)nn3ccc(N4CCCC4c4cc(F)ccc4F)nc23)n1` (stereo not drawn) [Example 26, ethyl 2-(5-(2-(2,5-difluorophenyl)pyrrolidin-1-yl)-2-((4-methoxybenzyl)amino)pyrazolo[1,5-a]pyrimidin-3-yl)oxazole-4-carboxylate], the IC50 was less than 100 nM.

`Nc1nn2ccc(N3CCC[C@@H]3c3cc(F)ccc3F)nc2c1C(=O)O` [Example 2, (R)-2-amino-5-(2-(2,5-difluorophenyl)pyrrolidin-1-yl)pyrazolo[1,5-a]pyrimidine-3-carboxylic Acid] showed an IC50 of less than 100 nM.

For the molecule `Nc1nn2ccc(N3CCCC3c3cc(F)ccc3F)nc2c1-c1cccc(N2CCOCC2)c1` (stereo not drawn) [Example 33, 5-(2-(2,5-difluorophenyl)pyrrolidin-1-yl)-3-(3-morpholinylphenyl)pyrazolo[1,5-a]pyrimidin-2-amine], the 50% inhibitory concentration (IC50) is less than 25 nM.

`CCOC(=O)c1c(N)nn2ccc(N3CC(F)(F)CC3c3cc(F)ccc3F)nc12` (stereo not drawn) [Example 38, ethyl 2-amino-5-(2-(2,5-difluorophenyl)-4,4-difluoropyrrolidin-1-yl)pyrazolo[1,5-a]pyrimidine-3-carboxylate]: the 50% inhibitory concentration (IC50) is less than 25 nM.

With `Nc1nn2ccc(N3CCC[C@@H]3c3cc(F)ccc3F)nc2c1C(=O)NCCO` [Example 13, (R)-2-amino-5-(2-(2,5-difluorophenyl)pyrrolidin-1-yl)-N-(2-hydroxyethyl)pyrazolo[1,5-a]pyrimidine-3-carboxamide], the concentration for half-maximal inhibition (IC50) was less than 1 nM.

`Nc1nn2ccc(N3C[C@@H](F)C[C@@H]3c3cc(F)ccc3F)nc2c1C(=O)NC1(CO)CC1` [Example 52, 2-amino-5-((2R,4S)-2-(2,5-difluorophenyl)-4-fluoropyrrolidin-1-yl)-N-(1-(hydroxymethyl)cyclopropyl)pyrazolo[1,5-a]pyrimidine-3-carboxamide] gave a 50% inhibitory concentration (IC50) of less than 1 nM.

Molecule `CCOC(=O)c1c(NCCN2CCOCC2)nn2ccc(N3CCC[C@@H]3c3cc(F)ccc3F)nc12` [Example 23, ethyl (R)-5-(2-(2,5-difluorophenyl)pyrrolidin-1-yl)-2-((2-morpholinylethyl)amino)pyrazolo[1,5-a]pyrimidine-3-carboxylate] gave a half-maximal inhibitory concentration (IC50) of less than 100 nM.

For `Cc1coc(-c2c(N)nn3ccc(N4CCCC4c4cc(F)ccc4F)nc23)n1` (stereo not drawn) [Example 27], the IC50 was less than 25 nM.

The molecule `CCOC(=O)c1c(N)nn2ccc(N3CC(=O)CC3c3cc(F)ccc3F)nc12` (stereo not drawn) [Example 43, ethyl 2-amino-5-(2-(2,5-difluorophenyl)-4-oxopyrrolidin-1-yl)pyrazolo[1,5-a]pyrimidine-3-carboxylate] gave a half-maximal inhibitory concentration (IC50) of less than 25 nM.

Molecule `CCOC(=O)c1c(N)nn2ccc(N3C[C@@H](F)C[C@@H]3c3cc(F)ccc3F)nc12` [Example 35, ethyl 2-amino-5-((2R,4S)-2-(2,5-difluorophenyl)-4-fluoropyrrolidin-1-yl)pyrazolo[1,5-a]pyrimidine-3-carboxylate] returned an IC50 of less than 1 nM.

The values above are taken from US10829492B2, “Amino pyrazolopyrimidine compound used as neurotrophic factor tyrosine kinase receptor inhibitor” (CHIA TAI TIANQING PHARMACEUTICAL GROUP CO., LTD., priority 2016, dated 2020).
